Measurements from patent publication US20160220552A1, “FORMULATIONS FOR CGRP RECEPTOR ANTAGONISTS” (MERCK SHARP & DOHME CORP., priority 2013, published 2016).

How the values were obtained:
[1] = clinical trials; cited from earlier work
[2] = Permeability of Compound I; assay type: in vitro ADME; settings: not told
[3] = BCS classification / solubility of Compound I; assay type: physicochemical
[4] = control group; cited from earlier work

| Papp [2] | BCS Class [3] | solubility [3] | SMILES | effectiveness in treating migraine [1] | prevention of headache induced by CGRP infusion [4] |
| --- | --- | --- | --- | --- | --- |
| – | – | – | O=C(N[C@@H]1CC[C@@H](c2cccc(F)c2F)CN(CC(F)(F)F)C1=O)N1CCC(n2c(=O)[nH]c3ncccc32)CC1 [telcagepant] | shown antimigraine effectiveness | – |
| 16.6 ×10⁻⁶ cm/s | BCS Class 4 | low solubility | C[C@@H]1[C@H](c2ccccc2)C[C@H](NC(=O)c2cnc3c(c2)C[C@@]2(C3)C(=O)Nc3ncccc32)C(=O)N1CC(F)(F)F [Compound I, (S)—N-((3S,5S,6R)-6-methyl-2-oxo-5-phenyl-1-(2,2,2-trifluoroethyl)piperidine-3-yl)-2′-oxo-1′,2′,5,7-tetrahydrospiro[cyclopenta[b]pyridine-6,3′-pyrrolo[2,3-b]pyridine]-3-carboxamide trihydrate] | – | – |
| – | – | – | NCCCC[C@H](NC(=O)[C@@H](Cc1cc(Br)c(O)c(Br)c1)NC(=O)N1CCC(N2Cc3ccccc3NC2=O)CC1)C(=O)N1CCN(c2ccncc2)CC1 [BIBN4096BS] | effective in treating acute attacks of migraine | able to prevent headache induced by CGRP infusion |
